Source: paper PMC10762078, “Role of UPF1-LIN28A interaction during early differentiation of pluripotent stem cells” (Nature Communications, 2024)
Ends that are not written are not given here.

How the values were obtained:
Type in all cases: cell-based, human
CHA15 cells [1] = assay: Immunofluorescence counting of OCT4- and NANOG-positive cells (Fig. 6c); conditions: for NANOG-positive cells, fluorescence quantification, mean / OCT4-positive cells, fluorescence quantification, mean: CHA15, CPP-peptide 10 μM, mean of 4 sets; for NANOG fluorescence, difference between means vs P1 ± SEM / OCT4 fluorescence, difference between means vs P1 ± SEM: CHA15, vs CPP-P1
Method: (§1) For CPP-conjugated peptide delivery, HeLa, 293T, and PA-1 cells were incubated with CPP-conjugated peptides or CPP-FITC at 2 μM in DMEM with 10% FBS for 12 h a day before cell harvest. hPSCs were treated with CPP-conjugated peptides at 10 μM in mTeSR Plus Medium, and the peptide-containing medium was changed every day over 10 days. The ROCK inhibitor (Tocris Bioscience, Y-27632) treated-hPSCs were dissociated into single cells using Accutase (Merck, SCR005) and differentiated into ectoderm, mesoderm, and endoderm using the STEMdiff Trilineage Differentiation Kit ([…] Technologies, 05230) following the manufacturer’s protocol. Differentiated cells treated with CPP-conjugated peptides were analysed at 0, 3, and 5 days for ectoderm and endoderm, and at 0, 3, and 4 days for mesoderm.
(§2) hPSCs or differentiated cells were fixed in 4% paraformaldehyde (Sigma-Aldrich). After 15–20 min, the cells were washed with 0.1% bovine serum albumin in phosphate-buffered saline (BSA/PBS) thrice and blocked for 1 h by adding 0.3% Triton X-100 (Sigma-Aldrich) and 10% normal goat serum (NGS; Fitzgerald industries, NG22S). After blocking, cells were incubated with the following primary antibodies: anti-UPF1 (Cell Signaling Technology, 12040; 1:500), LIN28A (Cell Signaling Technology, 3978; 1:500), OCT4 (Santa Cruz, sc-5279; 1:500), NANOG (Cell Signaling Technology, 4903; 1:500), DLK1 (GeneTex, GTX60511; 1:500), SOX1 (Cell Signaling Technology, 4194; 1:500), or LHX2 (GeneTex, GTX129241; 1:500). Primary antibodies were incubated overnight at 4 °C followed by incubation with the following secondary antibodies: Cy3 (Jackson ImmunoResearch, 115-165-146; 1:500) or Alexa Fluor 488 (Invitrogen, A-11008; 1:500) followed by the incubation with secondary fluorescence-conjugated antibodies for 1 h. The cells were mounted in […] with DAPI mounting medium (Vector Laboratories, H1200).
(§3) Immunofluorescence staining, proximity ligation assay imaging, and cell-penetrating efficiency of CPP-FITC were imaged with a confocal laser scanning microscope (Leica, TSC SP5) or immunofluorescence microscope (Leica, DM5000B). Z-stacks were captured, with sections spanning the entire cell. The LAS X Life Science program was used to obtain the maximum intensity projections and cross-sections of the confocal images.

CHA15 cells [2] = assay: Immunostaining of SOX1, DLK1 and LHX2 during ectodermal differentiation (Fig. 7b); conditions: for DLK1 fluorescence quantification, mean / LHX2 fluorescence quantification, mean / SOX1 fluorescence quantification, mean: mean of set1-set4
Method: as §1, §2, §3

[3] = tested on: let-7a, let-7g, miR-16-5p and their targets in CHA15 cells; assay: RT-qPCR of mature LIN28A-regulated miRNAs and CDF of let-7-5p / miR-16-5p target mRNAs (Supplementary Fig. 6f); design: key to let-7a level (RT-qPCR): relative level normalised to U6 snRNA; conditions: for let-7a level (RT-qPCR): Fig. s6f, dot plots, CHA15 cells
Method: cDNA was synthesised using RevertAid Reverse Transcriptase (Thermo Fisher Scientific, EP0441) with synthesised random hexamer (Macrogen) for total RNA or stem-loop primers for miRNA. For RT-qPCR reactions, the SensiFAST SYBR No-ROX kit (Meridian Bioscience) was used according to the manufacturer’s protocol. All data analysis and visualisation were conducted using R 3.6.1 [www.r-project.org] or GraphPad Prism 10. RT primers for miRNA and RT-qPCR primer sequences are provided in Supplementary Data 6.
Genes regulated by miRNA let-7-5p and miR-16-5p were determined by TargetScanHuman. Among miRNA targets sorted by cumulative weighted context++ score (CWCS)[57], the 100 top genes were selected and analysed using CDF. […]
Scatter
(bottom panel), respectively. f Levels of m ature endogenous m iRNAs in CHA15 cells, which were regulated by LIN28A, were assessed using RT -qPCR. Cum ulative f raction of log2 fold change in the expression of genes regulated by let-7-5p and m iR-16- 5p was shown as CDF graphs. T he relative level of m RNA was norm alised to that of U6 snRNA in (c, d, and f). K–S tests were used for e and f. Unpaired Student’s t-test was used for c , d, and f . * p < 0.05, ** p < 0.01, *** p < 0.001. Exact p -values were provided in Source data. Data are presented as m ean values ± SEM. All statistical test used were two- sided. T he m inim um num ber of independent biological replicate experim ents was a and e n = 2, b–d and f n = 3. T he experim ents were conducted three tim es, each iteration producing consistent results.

[4] = ectodermal differentiation, CHA15
[5] = Fig 7b, vs. P1, ± SEM, unpaired t test, df=6

Substance	levels of OCT4 and NANOG (CHA15 cells [1]; CHA15, proliferative state)	DLK1 and LHX2 expression (CHA15 cells [2]; [4])	SOX1 expression (CHA15 cells [2]; [4])	LIN28A-regulating miRNAs and their target mRNAs ([3]; CHA15)	NANOG-positive cells, fluorescence quantification, mean (CHA15 cells [1])	OCT4-positive cells, fluorescence quantification, mean (CHA15 cells [1])	NANOG fluorescence, difference between means vs P1 ± SEM (CHA15 cells [1])	OCT4 fluorescence, difference between means vs P1 ± SEM (CHA15 cells [1])	DLK1 fluorescence quantification, mean (CHA15 cells [2]; Fig 7b)	LHX2 fluorescence quantification, mean (CHA15 cells [2]; Fig 7b)	SOX1 fluorescence quantification, mean (CHA15 cells [2]; Fig 7b)	DLK1 fluorescence quantification, difference between means ± SEM (CHA15 cells [2]; [5])	LHX2 fluorescence quantification, difference between means ± SEM (CHA15 cells [2]; [5])	SOX1 fluorescence quantification, difference between means ± SEM (CHA15 cells [2]; [5])	let-7a level (RT-qPCR) ([3]; replicate 1)	let-7a level (RT-qPCR) ([3]; replicate 2)	let-7a level (RT-qPCR) ([3]; replicate 3)
KKKWCRKKKSSADEKRYRALKRTAERELLMNA [CPP-P8, CPP conjugated to P8]	significantly decreased	increased DLK1 and LHX2 expression	abrogated SOX1 expression	did not alter the expression of LIN28A-regulating miRNAs and their target mRNAs													
KKKWCRKKKSSADEKRYRALKRTAERELLMNA [P8]					14.24	22.84	-71.49 ± 1.616	-69.57 ± 2.939	98	65.64	40.11	67.91 ± 4.905	30.85 ± 5.040	-20.06 ± 8.048	0.9027	0.8569	0.8754
N-QKLDQKELQLEPM-C [P1, reference compound]					85.74	92.4			30.09	34.79	60.17				0.8272	1.208	0.9649
N-MPELQKLQQLKDE-C [P2, peptide derived from the UPF1 (419–700) domain]					81.51	89.62	-4.223 ± 2.867	-2.780 ± 1.262							0.9342	0.9709	0.9188
